From a melting point compilation (Tetko et al.)

| SMILES | melting point [°C] |
| --- | --- |
| N[C@H](C(=O)O)C1CCCCC1 | 256 |
| Clc1ccc2ccccc2c1Cl | 36 |
| N#C/C(=N\Nc1cc(Cl)ccc1Cl)c1nc2ccccc2[nH]1 | 300 to 302 |
| CSc1nc2ccc(N)cc2s1 | 105 to 107 |
| Cc1cc(C)n(CN(Cn2nc(C)cc2C)c2ccc(N(Cn3nc(C)cc3C)Cn3nc(C)cc3C)cc2)n1 | 175 |
| Cc1cccc(Cl)c1C=O | 37 |
| CC12CCC(=O)C=C1CCC1C2C(=O)CC2(C)C(C(=O)CO)CCC12 (configuration not stated) | 184 |
| CCCC(O)C(=O)O (configuration not stated) | 34 |
| COc1ccc(S(=O)(=O)Cl)cc1 | 40 to 42 |
| O=C(NN=CC=Cc1ccc([N+](=O)[O-])o1)c1ccc([N+](=O)[O-])s1 | 236 |
| O=NN1CCc2ccccc21 | 83 |
| CC1(C)CC(=O)CC(C)(C)C1 | 11 to 12 |
| C=C[Si](Cl)(Cl)Cl | -95 |
| Sc1ccc(Cl)cc1 | 61 |
| CCSCCO | -100 |
| O=[N+]([O-])c1ccc(-c2nnc(NC3=NCCN3)s2)cc1 | 239 to 241 |
| Cc1ccc(Nc2ccc([N+](=O)[O-])cc2[N+](=O)[O-])cc1 | 140 |
| Cc1ccc(C)c2c1C(=O)N(C)C2O (configuration not stated) | 163 |
| O=C1CC(=O)NC(=O)N1 | 248 |
| Brc1cccc2cc[nH]c12 | 46 to 47 |
| CCOC(=O)C(C(=O)OCC)C(Br)c1cc(C(Br)C(C(=O)OCC)C(=O)OCC)c([N+](=O)[O-])cc1[N+](=O)[O-] (configuration not stated) | 130 |

| SMILES | melting point [°C] |
| --- | --- |
| Cc1cc(C)ncn1 | 25 |
| CC(=O)OC1=c2ccc([N+](=O)[O-])cc2=NC1=c1ccc(=C2N=c3cc([N+](=O)[O-])ccc3=C2OC(C)=O)cc1 | 280 |
| O=C(Nc1ccc([N+](=O)[O-])cc1[N+](=O)[O-])C(C(F)(F)F)(C(F)(F)F)C(F)(F)F | 164 |
| O=c1cc(C(F)(F)F)c2cc(Cl)c(O)cc2o1 | 178 to 182 |
| O=C1Nc2ccc(I)cc2C1=O | 285 |
| CS(=O)(=O)c1cc(C(F)(F)F)ccc1C(=O)c1cnoc1C1CC1 | 140 |
| NC(=O)c1ccc(F)cc1C(F)(F)F | 136 |
| O=NN(CCCl)C(=O)NC1CCCCC1 | 90 |
| O=c1ccn(C2CC(F)C(CO)O2)c(=O)[nH]1 (configuration not stated) | 186 |
| O=C(O)C1CSC(c2cccnc2)=N1 (configuration not stated) | 180 to 181 |
| O=C(O)c1sc(Br)c2c1OCCO2 | 150 |
| CSc1[nH]nc(N)c1C#N | 190 |
| N=c1sc(C(=O)c2cccs2)nn1-c1c(Cl)cc(Cl)cc1Cl | 209 |
| Cc1cc(S(=O)(=O)Cl)ccc1Br | 59 |
| CCCCCOC(=O)Nc1nc(=O)n(C2OC(C)C(O)C2O)cc1F (configuration not stated) | 116 |
| CC12CCC(C(=O)Cl)(OC1=O)C2(C)C (configuration not stated) | 66 |
| O=C(Oc1ccc2ccccc2c1)c1cccc(S(=O)(=O)Oc2ccc3ccccc3c2)c1 | 172 |
| OCN(CO)c1nc(N(CO)CO)nc(N(CO)CO)n1 | 137 |
| CCC(C)c1cccc(C(C)CC)c1O (configuration not stated) | -42 |
| CCCCCCc1ccc(O)cc1 | 32 |
| CC(O)CCO (configuration not stated) | -54 |

| SMILES | melting point [°C] |
| --- | --- |
| CC(=O)c1ccc(C#N)c(S)n1 | 210 |
| BrCc1ccccc1Br | 31 |
| N#Cc1ccc([N+](=O)[O-])cc1Cl | 83 to 84 |
| C=CCC(C(=O)NC(N)=O)C(C)C (configuration not stated) | 194 |
| ON=Cc1ccc(Cl)cc1Cl | 134 to 136 |
| Cc1ccc(C2C(C#N)=C(N)N3C(=C2C#N)Sc2ccccc23)cc1 (configuration not stated) | 200 to 202 |
| C#CC1(O)CCC2C3CC=C4C=C(C(C)(C)C(=O)O)CCC4(C)C3CCC21C (configuration not stated) | 257 to 260 |
| O=C1CCCc2c1c1c3c(ccc4c3c2CCC4)CCC1 | 146 to 149 |
| Brc1cnc2[nH]ccc2c1 | 179 |
| COc1ccc2c(c1)CC1(CCC(c3ccc(C(C)(C)C)cc3)CC1)C2 (configuration not stated) | 84 to 85 |
| O=C(O)c1cccc2c1OCCO2 | 189 to 191 |
| CCCCc1ccc(N=Cc2ccc(C=Nc3ccc(CCCC)cc3)cc2)cc1 | 232 |
| COc1cc(NC(=S)NN)cc(OC)c1OC | 178 to 179 |
| NC(c1ccc(F)cc1)C(N)c1ccc(F)cc1 (configuration not stated) | 100 to 104 |
| Cn1c(C(=O)O)cc2sccc21 | 154 to 156 |
| S=c1cc[nH]c(=S)[nH]1 | 279 to 281 |
| Cc1cc(=O)oc2cc(OC3OCC(O)C(O)C3O)ccc12 (configuration not stated) | 223 |
| O=CCC=O | 72 |
| COC(=O)c1sc(N2CCCCC2)c(C#N)c1N | 184 to 185 |
| FC(F)(F)c1nnc(S)n1/N=C/c1ccc2c(c1)OCO2 | 221 |
| CC(C)(C)NC=O | 16 |

| SMILES | melting point [°C] |
| --- | --- |
| CCCCCCCCOc1ccc(C=O)cc1OCCCCCCCC | 54 to 56 |
| CCCNC(N)=O | 107 to 109 |
| FC(F)(F)C(F)(F)C(F)(F)C(F)(F)C(F)(F)C(F)(F)C(F)(F)C(F)(F)C(F)(F)C(F)(F)CCI | 82 to 83 |
| NNC(=O)c1ccccc1 | 115 |
| Nc1ccc(-n2cnc(Cl)c2Cl)cc1 | 104 to 105 |
| Brc1ccc2[nH]c3ccc(Br)cc3c2c1 | 212 |
| NCc1ccc2nccn2c1 | 97 to 99 |
| NS(=O)(=O)c1ccc(S(=O)(=O)CCO)c(F)c1 | 165 |
| O=[N+]([O-])c1c(Cl)ccc2nsnc12 | 149 to 152 |
| CCOC(=O)C(C)OC(=O)c1cc(Oc2ccc(C(F)(F)F)cc2Cl)ccc1[N+](=O)[O-] (configuration not stated) | 45 |
| Clc1ccc(I)cn1 | 97 |
| C1SSCSSS1 | 60.5 |
| Cc1oc(S(=O)(=O)N2CCCC2)cc1C(=O)O | 185 |
| CCOc1ccccc1OS(=O)(=O)NC(=O)Nc1nc(OC)cc(OC)n1 | 150 |
| Brc1ccncc1 | 0.5 |
| CCc1ccc(C(c2ccc(CC)o2)c2cc3c(cc2[N+](=O)[O-])OCCO3)o1 | 86 |
| CCCCCCSc1nnc(S)s1 | 75 |
| O=S(=O)(Cl)c1c(Cl)nc2sccn12 | 137 to 139 |

Second part, the compound after the results:

| melting point [°C] | SMILES |
| --- | --- |
| 59 to 61 | CCCCCCCCOc1ccc(C(C)=O)cc1OCCCCCCCC |
| 198 to 202 | O=C(NC1(C(=O)O)Cc2ccccc2C1)OCC1c2ccccc2-c2ccccc21 |
| 140 | CCCC(=O)Nc1ccc(O)cc1 |
| 284 to 288 | CC1=NN(c2ccc(C(=O)O)cc2)C(=O)C1 |
| 195 | Cc1ccc(C)c2c1-c1nc3ccccc3nc1-2 |
| 191 | COC(=O)C1=C(C)NC(C)=C(C(=O)OC)C1c1cccc(OC)c1O |
| 4 | Ic1cccc2ccccc12 |
| 55 to 57 | CN(C)CCOc1ccc(N)cc1 |
| 124 | CCCCC1C(=O)N(c2ccccc2)N(c2ccc(O)cc2)C1=O (configuration not stated) |
| 171 | CC1=NN(c2ccccc2)C(=O)/C1=N\Nc1cccc(C(F)(F)F)c1 |
| 250 | Cc1nc2ccccc2n1CCC(=O)NN1C(=O)CSC1c1ccccc1Cl (configuration not stated) |
| 110 to 115 | O=S(=O)(c1ccccc1)N(F)S(=O)(=O)c1ccccc1 |
| 105 to 108 | CCOC(=O)C1=C(N)Oc2ccc(Br)cc2C1C(C#N)C(=O)OCC (configuration not stated) |
| 193 | CC1=Nc2ccccc2N=C(C)C1 |
| 100 | CC(NC(=O)C(F)(F)C(F)(F)C(F)(F)C(F)(F)C(F)(F)C(F)(F)C(F)(F)C(F)(F)F)c1ccccc1 (configuration not stated) |
| 162 | CCCCCCN(CCCCCC)C(=O)COC(=O)c1ccccc1 |
| 5 | CC(=O)c1ccccc1O |
| 188 to 190 | CC(Cc1oc2c(c3c(c4ccccc42)O[C@@H]2CC(=O)O[C@H]32)c(=O)c1[Si](C)(C)C)O[Si](C)(C)C(C)(C)C (some centres not stated) |
| 133 | COC(=O)c1cc(O)cc(Br)c1 |
| 250 | NNC(=O)c1ccc(Cl)nc1 |
| 97 | COc1ccc(C(=O)c2cccc(Br)c2)cc1OC |
| 214 | O=[N+]([O-])c1ccccc1/C=C/c1ccccn1 |
| 206 to 207 | O=C(O)c1ccccc1Cn1cncn1 |

| melting point [°C] | SMILES |
| --- | --- |
| 120 | COc1ccc(-c2onc(C(=O)c3cccs3)c2S(=O)(=O)c2ccccc2)cc1 |
| 149 | CC/C(CCCc1ccccc1)=N\NC(N)=O |
| -7 | O=c1cccccc1 |
| -59 | CC(C)c1ccccc1Br |
| 98.5 | CC(=O)NCC1(c2ccccc2)CCN(CCCC(=O)c2ccc(F)cc2)CC1 |
| 159 | O=C(NC(Cc1ccccc1)c1ccccc1)c1cccnc1 (configuration not stated) |
| 147 | c1ccc(C2c3ccccc3-c3ccccc32)cc1 |
| 81 | CC(C)(C)OC(=O)NC(CI)C(=O)OCc1ccccc1 (configuration not stated) |
| 169 | NNC(=O)c1ccc(Cl)cc1Cl |
| 111 | O=C1C(Br)=C(c2ccccc2)c2ccccc21 |
| 7 | CCOC(=O)C=Cc1ccccc1 |
| -24 | CC(C)(C)Oc1ccccc1 |
| 99 | CCn1c2ccccc2c2cc(N)ccc21 |
| 120 to 124 | C=C(C)n1c(=O)[nH]c2ccccc21 |
| 74.5 | CCCCC(=O)c1ccc(N)cc1 |
| 108 | COc1ccc(C2Cc3ccccc3C(=O)O2)cc1 (configuration not stated) |
| 299 to 300 | N#C/C(=C\c1cccc(O)c1)c1nc2ccccc2[nH]1 |
| 136 | CC(C)(C)C(=O)Nc1ccc2nn(C3CCCC3)nc2c1 |
| 99 to 100 | Cc1ccccc1-n1ncc(C=O)c1C |
| 107 | COC(=O)NCCc1ccccc1NC(C)=O |
| 229 | C=CCNC(=S)NNC(=O)C(=O)c1c[nH]c2ccccc12 |
| 53 | CCOC(=O)CSc1nc(C(C)(C)C)nn1C(=O)N(C)C |
| 232 | O=C(O)c1cn(S(=O)(=O)c2ccccc2)c2ccccc12 |
